Measurements as given in ChEMBL document CHEMBL4507297, “Data for DCP probe PF-04457845” (2021).

Key:
[1] = molecular target: Serine/threonine-protein kinase DCLK1 (Homo sapiens) (UniProt O15075); settings: Compound concentration 1000.0 nM
[2] = molecular target: D(3) dopamine receptor (Homo sapiens) (UniProt P35462); settings: Compound concentration 10.0 uM
[3] = test system: Hepatocyte growth factor receptor (Homo sapiens), P08581 [M1250T]; settings: Compound concentration 1000.0 nM
[4] = molecular target: NUAK family SNF1-like kinase 2 (Homo sapiens) (UniProt Q9H093); settings: Compound concentration 1000.0 nM
[5] = test system: Tyrosine-protein kinase ABL1 (Homo sapiens), P00519 [F317I]; settings: Compound concentration 1000.0 nM
[6] = molecular target: Mitogen-activated protein kinase 12 (Homo sapiens) (UniProt P53778); settings: Compound concentration 1000.0 nM
[7] = molecular target: Bone morphogenetic protein receptor type-1A (Homo sapiens) (UniProt P36894); settings: Compound concentration 1000.0 nM
[8] = molecular target: Serine/threonine-protein kinase 36 (Homo sapiens) (UniProt Q9NRP7); settings: Compound concentration 1000.0 nM
[9] = test system: Epidermal growth factor receptor (Homo sapiens), P00533 [T790M]; settings: Compound concentration 1000.0 nM
[10] = molecular target: Insulin receptor-related protein (Homo sapiens) (UniProt P14616); settings: Compound concentration 1000.0 nM
[11] = molecular target: Serine/threonine-protein kinase DCLK3 (Homo sapiens) (UniProt Q9C098); settings: Compound concentration 1000.0 nM
[12] = molecular target: Cyclin-dependent kinase 4 (Homo sapiens) (UniProt P11802); settings: Compound concentration 1000.0 nM
[13] = molecular target: Cyclin-dependent kinase-like 1 (Homo sapiens) (UniProt Q00532); settings: Compound concentration 1000.0 nM
[14] = molecular target: Vascular endothelial growth factor receptor 2 (Homo sapiens) (UniProt P35968); settings: Compound concentration 1000.0 nM
[15] = molecular target: Cytoplasmic tyrosine-protein kinase BMX (Homo sapiens) (UniProt P51813); settings: Compound concentration 1000.0 nM
Cytoplasmic tyrosine-protein kinase BMX (Homo sapiens), sequence (P51813 whole entry, canonical isoform): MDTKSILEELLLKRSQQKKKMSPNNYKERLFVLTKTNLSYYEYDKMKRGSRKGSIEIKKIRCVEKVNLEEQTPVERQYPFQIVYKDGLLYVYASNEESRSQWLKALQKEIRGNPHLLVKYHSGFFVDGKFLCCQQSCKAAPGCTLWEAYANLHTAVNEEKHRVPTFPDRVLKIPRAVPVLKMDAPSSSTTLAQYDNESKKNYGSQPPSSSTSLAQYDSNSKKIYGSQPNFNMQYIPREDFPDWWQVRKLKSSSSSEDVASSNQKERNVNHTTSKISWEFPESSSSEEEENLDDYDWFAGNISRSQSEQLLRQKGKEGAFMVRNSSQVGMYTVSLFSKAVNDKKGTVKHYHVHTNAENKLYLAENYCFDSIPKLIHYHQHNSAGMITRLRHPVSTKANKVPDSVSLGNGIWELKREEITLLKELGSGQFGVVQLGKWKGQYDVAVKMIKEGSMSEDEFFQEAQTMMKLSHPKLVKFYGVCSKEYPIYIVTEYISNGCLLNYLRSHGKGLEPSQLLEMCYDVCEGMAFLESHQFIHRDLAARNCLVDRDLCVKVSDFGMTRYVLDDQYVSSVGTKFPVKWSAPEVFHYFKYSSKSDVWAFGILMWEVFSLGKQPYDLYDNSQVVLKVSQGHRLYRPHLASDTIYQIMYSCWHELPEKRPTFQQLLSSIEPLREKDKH

[16] = molecular target: Casein kinase I isoform epsilon (Homo sapiens) (UniProt P49674); settings: Compound concentration 1000.0 nM
Casein kinase I isoform epsilon (Homo sapiens), sequence (P49674 whole entry, looked up, canonical isoform): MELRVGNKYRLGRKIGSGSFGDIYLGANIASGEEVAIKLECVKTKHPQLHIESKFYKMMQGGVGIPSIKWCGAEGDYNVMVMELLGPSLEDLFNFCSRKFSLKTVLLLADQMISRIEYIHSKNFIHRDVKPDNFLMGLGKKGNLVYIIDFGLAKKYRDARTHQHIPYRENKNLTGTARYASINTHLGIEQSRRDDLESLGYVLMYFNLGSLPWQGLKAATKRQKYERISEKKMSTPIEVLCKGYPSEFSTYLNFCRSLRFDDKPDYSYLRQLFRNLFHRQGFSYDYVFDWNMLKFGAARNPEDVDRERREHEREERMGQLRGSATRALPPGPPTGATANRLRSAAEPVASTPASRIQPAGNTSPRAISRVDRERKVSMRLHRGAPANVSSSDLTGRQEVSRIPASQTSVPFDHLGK

[17] = molecular target: Activated CDC42 kinase 1 (Homo sapiens) (UniProt Q07912); settings: Compound concentration 1000.0 nM
[18] = molecular target: 5'-AMP-activated protein kinase catalytic subunit alpha-2 (Homo sapiens) (UniProt P54646); settings: Compound concentration 1000.0 nM
[19] = molecular target: G protein-coupled receptor kinase 4 (Homo sapiens) (UniProt P32298); settings: Compound concentration 1000.0 nM
[20] = molecular target: Phosphorylase b kinase regulatory subunit alpha, liver isoform (Homo sapiens) (UniProt P46019); settings: Compound concentration 1000.0 nM
[21] = molecular target: Serine/threonine-protein kinase Nek4 (Homo sapiens) (UniProt P51957); settings: Compound concentration 1000.0 nM
[22] = molecular target: Protein kinase C eta type (Homo sapiens) (UniProt P24723); settings: Compound concentration 1000.0 nM
[23] = molecular target: Serine/threonine-protein kinase LATS1 (Homo sapiens) (UniProt O95835); settings: Compound concentration 1000.0 nM
Serine/threonine-protein kinase LATS1 (Homo sapiens), sequence (O95835 whole entry, canonical isoform): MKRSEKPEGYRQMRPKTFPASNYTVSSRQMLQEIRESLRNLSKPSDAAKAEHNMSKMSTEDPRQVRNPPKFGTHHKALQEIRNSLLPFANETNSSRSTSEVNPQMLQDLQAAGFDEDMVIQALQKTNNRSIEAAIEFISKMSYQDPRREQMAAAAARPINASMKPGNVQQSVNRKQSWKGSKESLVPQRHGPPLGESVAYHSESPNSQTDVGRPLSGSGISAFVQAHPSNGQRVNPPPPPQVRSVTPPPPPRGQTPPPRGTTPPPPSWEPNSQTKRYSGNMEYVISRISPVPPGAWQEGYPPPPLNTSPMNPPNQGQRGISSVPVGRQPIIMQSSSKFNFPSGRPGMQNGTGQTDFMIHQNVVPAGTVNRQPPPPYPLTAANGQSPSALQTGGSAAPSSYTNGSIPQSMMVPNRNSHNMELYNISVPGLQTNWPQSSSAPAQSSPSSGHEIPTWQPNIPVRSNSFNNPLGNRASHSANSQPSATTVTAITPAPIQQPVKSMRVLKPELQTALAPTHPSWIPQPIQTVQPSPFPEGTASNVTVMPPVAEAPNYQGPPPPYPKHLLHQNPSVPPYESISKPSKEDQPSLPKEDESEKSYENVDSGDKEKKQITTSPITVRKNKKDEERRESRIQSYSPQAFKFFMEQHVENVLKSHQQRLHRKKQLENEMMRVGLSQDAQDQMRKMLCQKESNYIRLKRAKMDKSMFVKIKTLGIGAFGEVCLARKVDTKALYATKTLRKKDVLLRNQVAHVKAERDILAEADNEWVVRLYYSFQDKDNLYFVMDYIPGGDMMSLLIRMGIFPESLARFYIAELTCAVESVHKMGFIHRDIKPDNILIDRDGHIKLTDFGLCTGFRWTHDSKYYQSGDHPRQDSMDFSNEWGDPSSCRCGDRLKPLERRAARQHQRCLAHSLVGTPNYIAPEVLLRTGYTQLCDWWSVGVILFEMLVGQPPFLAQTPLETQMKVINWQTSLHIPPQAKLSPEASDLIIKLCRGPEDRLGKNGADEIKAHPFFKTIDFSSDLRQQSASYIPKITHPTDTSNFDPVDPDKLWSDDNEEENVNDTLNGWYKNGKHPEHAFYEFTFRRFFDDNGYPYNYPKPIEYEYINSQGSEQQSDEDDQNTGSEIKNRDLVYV

[24] = test system: Phosphatidylinositol 4,5-bisphosphate 3-kinase catalytic subunit alpha isoform (Homo sapiens), P42336 [E545K]; settings: Compound concentration 1000.0 nM
[25] = molecular target: Receptor tyrosine-protein kinase erbB-3 (Homo sapiens) (UniProt P21860); settings: Compound concentration 1000.0 nM
[26] = molecular target: Protein kinase C epsilon type (Homo sapiens) (UniProt Q02156); settings: Compound concentration 1000.0 nM
[27] = molecular target: Serine/threonine-protein kinase Nek3 (Homo sapiens) (UniProt P51956); settings: Compound concentration 1000.0 nM
[28] = molecular target: Ribosomal protein S6 kinase alpha-5 (Homo sapiens) (UniProt O75582); settings: Compound concentration 1000.0 nM
[29] = molecular target: Sigma non-opioid intracellular receptor 1 (Homo sapiens, UniProt Q99720); settings: Compound concentration 10.0 uM
Sigma non-opioid intracellular receptor 1, sequence (Q99720 whole entry): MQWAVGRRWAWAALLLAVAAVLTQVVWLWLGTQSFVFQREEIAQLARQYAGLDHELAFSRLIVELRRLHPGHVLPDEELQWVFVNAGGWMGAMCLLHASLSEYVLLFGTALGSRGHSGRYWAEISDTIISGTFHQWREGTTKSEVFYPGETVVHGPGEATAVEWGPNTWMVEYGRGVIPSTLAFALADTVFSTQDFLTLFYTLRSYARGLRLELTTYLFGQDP

[30] = molecular target: SNF-related serine/threonine-protein kinase (Homo sapiens) (UniProt Q9NRH2); settings: Compound concentration 1000.0 nM
[31] = molecular target: Dual specificity protein kinase CLK2 (Homo sapiens) (UniProt P49760); settings: Compound concentration 1000.0 nM
Dual specificity protein kinase CLK2 (Homo sapiens), sequence (P49760 whole entry, looked up): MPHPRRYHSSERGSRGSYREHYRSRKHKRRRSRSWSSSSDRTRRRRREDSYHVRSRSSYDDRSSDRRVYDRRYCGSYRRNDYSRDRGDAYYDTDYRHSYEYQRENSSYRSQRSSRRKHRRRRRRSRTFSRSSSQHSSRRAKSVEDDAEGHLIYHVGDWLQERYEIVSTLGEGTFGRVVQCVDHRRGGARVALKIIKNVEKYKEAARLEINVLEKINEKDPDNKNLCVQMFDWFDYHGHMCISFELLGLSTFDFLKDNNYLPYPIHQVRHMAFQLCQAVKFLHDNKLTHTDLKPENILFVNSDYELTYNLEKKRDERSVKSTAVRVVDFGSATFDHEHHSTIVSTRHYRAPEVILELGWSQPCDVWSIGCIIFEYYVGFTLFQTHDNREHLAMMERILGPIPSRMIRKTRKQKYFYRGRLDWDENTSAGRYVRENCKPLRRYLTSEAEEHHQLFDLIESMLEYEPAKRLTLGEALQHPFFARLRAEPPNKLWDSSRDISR

[32] = molecular target: Testis-specific serine/threonine-protein kinase 1 (Homo sapiens) (UniProt Q9BXA7); settings: Compound concentration 1000.0 nM
Testis-specific serine/threonine-protein kinase 1 (Homo sapiens), sequence (Q9BXA7 whole entry): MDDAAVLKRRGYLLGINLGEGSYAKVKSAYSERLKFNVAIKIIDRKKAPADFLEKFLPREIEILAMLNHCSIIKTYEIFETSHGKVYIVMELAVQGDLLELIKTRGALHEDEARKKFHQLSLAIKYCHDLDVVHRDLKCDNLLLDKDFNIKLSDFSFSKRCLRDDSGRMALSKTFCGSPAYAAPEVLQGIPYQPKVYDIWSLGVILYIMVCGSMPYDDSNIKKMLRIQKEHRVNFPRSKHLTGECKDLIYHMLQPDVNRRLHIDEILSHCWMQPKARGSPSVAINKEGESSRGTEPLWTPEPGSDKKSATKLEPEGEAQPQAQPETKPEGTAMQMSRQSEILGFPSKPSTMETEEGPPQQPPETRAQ

[33] = molecular target: Phosphatidylinositol 5-phosphate 4-kinase type-2 gamma (Homo sapiens) (UniProt Q8TBX8); settings: Compound concentration 1000.0 nM
[34] = test system: Phosphatidylinositol 4,5-bisphosphate 3-kinase catalytic subunit alpha isoform (Homo sapiens), P42336 [Q546K]; settings: Compound concentration 1000.0 nM
[35] = molecular target: 5-hydroxytryptamine receptor 5A (Homo sapiens) (UniProt P47898); settings: Compound concentration 10.0 uM
[36] = molecular target: Tyrosine-protein kinase receptor Tie-1 (Homo sapiens) (UniProt P35590); settings: Compound concentration 1000.0 nM
[37] = molecular target: Myosin light chain kinase, smooth muscle (Homo sapiens) (UniProt Q15746); settings: Compound concentration 1000.0 nM
[38] = molecular target: Leukocyte tyrosine kinase receptor (Homo sapiens) (UniProt P29376); settings: Compound concentration 1000.0 nM
[39] = molecular target: Mitogen-activated protein kinase kinase kinase 9 (Homo sapiens) (UniProt P80192); settings: Compound concentration 1000.0 nM
[40] = test system: Mast/stem cell growth factor receptor Kit (Homo sapiens), P10721 [V559D,T670I]; settings: Compound concentration 1000.0 nM
[41] = molecular target: Ephrin type-B receptor 3 (Homo sapiens) (UniProt P54753); settings: Compound concentration 1000.0 nM
Ephrin type-B receptor 3 (Homo sapiens), sequence (P54753 whole entry): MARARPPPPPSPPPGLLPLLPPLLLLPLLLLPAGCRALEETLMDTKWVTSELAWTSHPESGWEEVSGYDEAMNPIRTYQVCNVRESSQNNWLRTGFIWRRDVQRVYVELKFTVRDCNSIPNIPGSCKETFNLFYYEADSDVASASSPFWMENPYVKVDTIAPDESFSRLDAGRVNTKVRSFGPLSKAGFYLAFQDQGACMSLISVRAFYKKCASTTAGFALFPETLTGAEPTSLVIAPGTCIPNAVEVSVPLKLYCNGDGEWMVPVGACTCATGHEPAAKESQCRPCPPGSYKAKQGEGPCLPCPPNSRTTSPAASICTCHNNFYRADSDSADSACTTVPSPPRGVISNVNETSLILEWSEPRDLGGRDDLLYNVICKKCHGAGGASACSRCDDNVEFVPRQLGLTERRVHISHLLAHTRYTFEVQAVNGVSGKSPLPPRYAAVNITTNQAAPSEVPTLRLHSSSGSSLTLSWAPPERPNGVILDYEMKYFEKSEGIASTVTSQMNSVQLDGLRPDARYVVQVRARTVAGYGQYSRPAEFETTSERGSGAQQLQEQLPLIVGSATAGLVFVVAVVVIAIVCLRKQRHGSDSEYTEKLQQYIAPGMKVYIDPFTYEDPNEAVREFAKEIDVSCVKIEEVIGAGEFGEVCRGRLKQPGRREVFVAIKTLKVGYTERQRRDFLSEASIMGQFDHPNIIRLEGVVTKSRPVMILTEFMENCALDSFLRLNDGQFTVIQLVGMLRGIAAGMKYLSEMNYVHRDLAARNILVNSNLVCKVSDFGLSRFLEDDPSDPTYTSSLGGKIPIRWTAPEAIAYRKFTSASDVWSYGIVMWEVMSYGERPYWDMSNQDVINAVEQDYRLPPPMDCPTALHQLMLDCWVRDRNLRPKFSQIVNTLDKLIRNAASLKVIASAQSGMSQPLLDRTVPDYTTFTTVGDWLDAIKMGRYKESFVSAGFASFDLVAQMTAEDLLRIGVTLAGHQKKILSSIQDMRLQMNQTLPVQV

[42] = test system: Mast/stem cell growth factor receptor Kit (Homo sapiens), P10721 [V559D,V654A]; settings: Compound concentration 1000.0 nM
[43] = molecular target: Muscarinic acetylcholine receptor M5 (Homo sapiens) (UniProt P08912); settings: Compound concentration 10.0 uM
[44] = molecular target: Ephrin type-A receptor 3 (Homo sapiens) (UniProt P29320); settings: Compound concentration 1000.0 nM
[45] = molecular target: Tyrosine-protein kinase HCK (Homo sapiens) (UniProt P08631); settings: Compound concentration 1000.0 nM

Serine/threonine-protein kinase DCLK1 (Homo sapiens), sequence (O15075 whole entry): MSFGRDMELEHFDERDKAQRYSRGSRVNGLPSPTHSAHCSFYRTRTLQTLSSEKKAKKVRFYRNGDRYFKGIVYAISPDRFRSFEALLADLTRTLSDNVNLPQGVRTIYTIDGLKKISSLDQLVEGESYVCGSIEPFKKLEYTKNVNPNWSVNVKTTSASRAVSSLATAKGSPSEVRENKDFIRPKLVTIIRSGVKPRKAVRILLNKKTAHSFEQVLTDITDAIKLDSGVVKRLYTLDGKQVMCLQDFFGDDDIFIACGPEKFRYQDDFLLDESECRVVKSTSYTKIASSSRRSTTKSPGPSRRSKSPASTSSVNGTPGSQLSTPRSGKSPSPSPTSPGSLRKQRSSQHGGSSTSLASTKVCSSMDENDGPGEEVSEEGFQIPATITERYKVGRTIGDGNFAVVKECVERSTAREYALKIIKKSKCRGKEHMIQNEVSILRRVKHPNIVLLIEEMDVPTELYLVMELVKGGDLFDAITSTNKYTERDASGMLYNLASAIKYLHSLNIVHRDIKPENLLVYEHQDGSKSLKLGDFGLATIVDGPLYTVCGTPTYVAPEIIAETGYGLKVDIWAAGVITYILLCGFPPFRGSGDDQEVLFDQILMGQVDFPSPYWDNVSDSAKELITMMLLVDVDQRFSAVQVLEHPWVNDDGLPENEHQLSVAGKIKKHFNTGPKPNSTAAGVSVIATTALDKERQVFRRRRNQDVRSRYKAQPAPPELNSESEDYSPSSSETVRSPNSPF

## O=C(Nc1cccnn1)N1CC(C/C=C/c2cncc(Oc3ccc(C(F)(F)F)cn3)n2)C1
[1]
  residual activity: 84%
[2]
  inhibition: -9.59%
[3]
  residual activity: 100%
[4]
  residual activity: 73%
[5]
  residual activity: 53%
[6]
  residual activity: 100%
[7]
  residual activity: 100%
[8]
  residual activity: 100%
[9]
  residual activity: 100%
[10]
  residual activity: 100%
[11]
  residual activity: 100%
[12]
  residual activity: 75%
[13]
  residual activity: 100%
[14]
  residual activity: 64%
[15]
  residual activity: 100%
[16]
  residual activity: 100%
[17]
  residual activity: 100%
[18]
  residual activity: 96%
[19]
  residual activity: 100%
[20]
  residual activity: 100%
[21]
  residual activity: 95%
[22]
  residual activity: 100%
[23]
  residual activity: 91%
[24]
  residual activity: 81%
[25]
  residual activity: 99%
[26]
  residual activity: 100%
[27]
  residual activity: 100%
[28]
  residual activity: 100%
[29]
  inhibition: 32.2%
[30]
  residual activity: 100%
[31]
  residual activity: 100%
[32]
  residual activity: 100%
[33]
  residual activity: 100%
[34]
  residual activity: 92%
[35]
  inhibition: 7.85%
[36]
  residual activity: 100%
[37]
  residual activity: 73%
[38]
  residual activity: 100%
[39]
  residual activity: 100%
[40]
  residual activity: 100%
[41]
  residual activity: 100%
[42]
  residual activity: 100%
[43]
  inhibition: -0.59%
[44]
  residual activity: 95%
[45]
  residual activity: 100%

## O=C(Nc1cccnn1)N1CCC(=Cc2cccc(Oc3ccc(C(F)(F)F)cn3)c2)CC1
[1]
  residual activity: 100%
[2]
  inhibition: 4.08%
[3]
  residual activity: 100%
[4]
  residual activity: 88%
[5]
  residual activity: 100%
[6]
  residual activity: 100%
[7]
  residual activity: 100%
[8]
  residual activity: 100%
[9]
  residual activity: 100%
[10]
  residual activity: 100%
[11]
  residual activity: 85%
[12]
  residual activity: 100%
[13]
  residual activity: 86%
[14]
  residual activity: 88%
[15]
  residual activity: 71%
[16]
  residual activity: 100%
[17]
  residual activity: 100%
[18]
  residual activity: 100%
[19]
  residual activity: 97%
[20]
  residual activity: 88%
[21]
  residual activity: 98%
[22]
  residual activity: 77%
[23]
  residual activity: 100%
[24]
  residual activity: 100%
[25]
  residual activity: 84%
[26]
  residual activity: 82%
[27]
  residual activity: 100%
[28]
  residual activity: 83%
[29]
  inhibition: 88.5%
[30]
  residual activity: 100%
[31]
  residual activity: 66%
[32]
  residual activity: 82%
[33]
  residual activity: 75%
[34]
  residual activity: 45%
[35]
  inhibition: 28.4%
[36]
  residual activity: 100%
[37]
  residual activity: 100%
[38]
  residual activity: 74%
[39]
  residual activity: 100%
[40]
  residual activity: 96%
[41]
  residual activity: 81%
[42]
  residual activity: 100%
[43]
  inhibition: 23.5%
[44]
  residual activity: 100%
[45]
  residual activity: 98%
